{"source": "patent US20150225303A1", "about": "“IRON-ESSENTIAL FOR FLORA AND FAUNA” (priority 2012, published 2015)", "key": {"maize crop": {"system": "maize crop", "assay": "Field experiment in maize crop, foliar application", "type": "in vivo", "details": "for Stem girth R1 / Cobs yield R1 / No. of cobs R1 / Seed yield R1: replicate R1; for Cobs yield MEAN / No. of cobs MEAN / Seed yield MEAN / Stem girth MEAN: mean of R1-R3; for Cobs yield R3 / No. of cobs R3 / Seed yield R3 / Stem girth R3: replicate R3", "experimental": "Field experiments in maize crop were conducted using the composition of the present invention at Maize Research Centre, Hyderabad during kharif 2009. […] GRIP (Fe HEDP)-15% […]+27% P2O5-1 g/l of water • […] of water • […] of water • T 5: Fe EDTA-12%-1 g/l of water • T 6: […] Control (Only recommended Fertilizer dose) For all the six treatments, the composition of the present invention was used along with the recommended fertilizer dose (180-60-60 kg N-P2O5-K2O/ha). The composition of the present invention (Fe-HEDP) was applied at three stages 20, 40 and 60 days after sowing. The crops were harvested in the month of November i.e. four months after sowing."}, "[1]": {"details": "prior art statement; cited from earlier work"}, "[2]": {"details": "treatment level 2 (2 g/l of water; GRIP T2 printed as 1 g/l)"}}}
{"smiles": "O=C([O-])CN(CCN(CC(=O)[O-])CC(=O)[O-])CC(=O)[O-].[Fe+3]", "note": "[Fe EDTA, Fe-Ethylene diamine tetra acetic acid]", "values": [{"measurement": "Stem girth R1", "setting": "maize crop; 1 g/l of water, applied 20, 40 and 60 days after sowing", "result": 6.6, "unit": "cm"}, {"measurement": "Cobs yield MEAN", "setting": "maize crop; 1 g/l of water", "result": 7516.67, "unit": "kg/ha"}, {"measurement": "No. of cobs MEAN", "setting": "maize crop; 1 g/l of water", "result": "40.17 ′000 ha"}, {"measurement": "Seed yield MEAN", "setting": "maize crop; 1 g/l of water", "result": 5777.67, "unit": "kg/ha"}, {"measurement": "Stem girth MEAN", "setting": "maize crop; 1 g/l of water", "result": 6.53, "unit": "cm"}, {"measurement": "Cobs yield R1", "setting": "maize crop; 1 g/l of water", "result": 6205, "unit": "kg/ha"}, {"measurement": "No. of cobs R1", "setting": "maize crop; 1 g/l of water", "result": "38.8 ′000 ha"}, {"measurement": "Seed yield R1", "setting": "maize crop; 1 g/l of water", "result": 5022.0, "unit": "kg/ha"}, {"measurement": "Cobs yield R3", "setting": "maize crop; 1 g/l of water", "result": 8490, "unit": "kg/ha"}, {"measurement": "No. of cobs R3", "setting": "maize crop; 1 g/l of water", "result": "41.2 ′000 ha"}, {"measurement": "Seed yield R3", "setting": "maize crop; 1 g/l of water", "result": 6448.0, "unit": "kg/ha"}, {"measurement": "Stem girth R3", "setting": "maize crop; 1 g/l of water", "result": 6.6, "unit": "cm"}, {"measurement": "Cobs yield MEAN", "setting": "maize crop; [2]", "result": 7875.00, "unit": "kg/ha"}, {"measurement": "No. of cobs MEAN", "setting": "maize crop; [2]", "result": "37.8 ′000 ha"}, {"measurement": "Seed yield MEAN", "setting": "maize crop; [2]", "result": 5888.00, "unit": "kg/ha"}, {"measurement": "Stem girth MEAN", "setting": "maize crop; [2]", "result": 6.43, "unit": "cm"}, {"measurement": "Cobs yield R1", "setting": "maize crop; [2]", "result": 6935, "unit": "kg/ha"}, {"measurement": "No. of cobs R1", "setting": "maize crop; [2]", "result": "35.6 ′000 ha"}, {"measurement": "Seed yield R1", "setting": "maize crop; [2]", "result": 4355.0, "unit": "kg/ha"}, {"measurement": "Stem girth R1", "setting": "maize crop; [2]", "result": 6.5, "unit": "cm"}, {"measurement": "Cobs yield R3", "setting": "maize crop; [2]", "result": 8200, "unit": "kg/ha"}, {"measurement": "No. of cobs R3", "setting": "maize crop; [2]", "result": "41.0 ′000 ha"}, {"measurement": "Seed yield R3", "setting": "maize crop; [2]", "result": 7633.0, "unit": "kg/ha"}, {"measurement": "Stem girth R3", "setting": "maize crop; [2]", "result": 6.1, "unit": "cm"}]}
{"smiles": "O=C([O-])CN(CCN(CC(=O)[O-])CC(=O)[O-])CCN(CC(=O)[O-])CC(=O)[O-].[Fe+3]", "note": "[Fe-DTPA, Fe-Diethylene triamine penta acetic acid]", "values": [{"measurement": "pH level up to which the chelate is stable", "setting": "[1]", "result": "up to 7.0"}]}
{"smiles": "O=C([O-])C(NCCNC(C(=O)[O-])c1ccccc1[O-])c1ccccc1[O-].[Fe+3]", "note": "(centres unmarked) [Fe-EDDHA, Fe-ethylene diamine-N,N′-bis (2-hydroxyphenylacetic acid)]", "values": [{"measurement": "pH level up to which the chelate is stable", "setting": "[1]", "result": "up to 11.0"}]}
